# Results: article PMC6757289, “Design and Characterization of SGK3-PROTAC1, an Isoform Specific SGK3 Kinase PROTAC Degrader” (ACS Chemical Biology, 2019)
# Target: T1, SGK3 (Homo sapiens, UniProt Q96BR1)
# T1 sequence (Q96BR1 1-496): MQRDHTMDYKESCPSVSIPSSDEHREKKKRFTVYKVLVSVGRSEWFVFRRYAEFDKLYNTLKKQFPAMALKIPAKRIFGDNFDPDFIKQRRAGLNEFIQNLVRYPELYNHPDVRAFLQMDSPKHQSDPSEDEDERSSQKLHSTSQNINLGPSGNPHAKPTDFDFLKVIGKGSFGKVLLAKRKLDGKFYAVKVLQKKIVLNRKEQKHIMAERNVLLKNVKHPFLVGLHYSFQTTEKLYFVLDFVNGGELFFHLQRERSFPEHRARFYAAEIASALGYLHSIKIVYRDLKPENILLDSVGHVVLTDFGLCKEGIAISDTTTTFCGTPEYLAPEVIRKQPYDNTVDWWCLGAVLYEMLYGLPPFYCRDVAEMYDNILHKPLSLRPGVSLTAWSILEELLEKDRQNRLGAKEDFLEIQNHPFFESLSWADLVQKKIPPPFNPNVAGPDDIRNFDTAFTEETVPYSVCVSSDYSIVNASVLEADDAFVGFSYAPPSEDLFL
# Experiment: TMT global proteomic analysis of HEK293 cells
# Format: cell-based
# Design: global proteomic analysis of HEK293 cells treated in the presence or absence of 0.3 μM SGK3-PROTAC1; endogenous in cells; host or cells: HEK293
# Conditions: HEK293, 0.3 μM, 8 h
# Experimental: To establish the specificity of SGK3-PROTAC1 employing an unbiased approach, we performed quantitative Tandem–Mass–Tag (TMT)-labeled global proteomic analysis of HEK293 cells treated in the presence or absence of 0.3 μM SGK3-PROTAC1 compared to either 0.3 μM cisSGK3-PROTAC1 or DMSO for 8 h. Experiments were undertaken in triplicate, and analysis in Proteome Discoverer v2.2 using the Mascot search engine allowed relative quantification of 8766 proteins.
# Figure 4 TMT proteomic analysis of HEK293 cells treated with SGK3-PROTAC1. (A) Cells were treated with DMSO (control), SGK3-PROTAC1 (0.3 μM), or cisSGK3-PROTAC1 (0.3 μM) for 8 h and lysed. Lysates were subjected to immunoblot analysis with the indicated antibodies. (B) Lysates were examined by quantitative proteomics. […]
# Cell culture and proteomic sample preparation
# Cells pellets were lysed with 2 ml of lysis buffer (8 M Urea, 50 mM Ammonium bicarbonate containing protease inhibitor and phosphatase inhibitor). The sample were left on ice for 15 min and were then sonicated for 5 min in ice-cold water bath under high intensity with 30 sec on and off. After sonication, benzonase® endonuclease (Merck Millipore) with the volume ratio of 1: 100 were added into the lysate to degrade DNA and RNA. The lysate were then centrifuged at 12,000 rpm for 15 min at 4 °C, and supernatants were transferred into new eppendorf tubes. The protein concentration were measured with BCA assay (Pierce™ BCA Protein Assay Kit, Thermo). The lysate from each sample was reduced with 5 mM DTT at 45 °C for 30 min. Lysates were briefly centrifuged and were cool down to room temperature before alkylation in the dark with 10 mM iodoacetamide at room temperature. The alkylation was then quenched by the addition of 5 mM DTT. Samples were first digested by Lys-C with the weight ratio of 1:200 (w/w) for 4 h at 30 °c. Then, sample were diluted with 50 mM ammonium bicarbonate to 1.5 M Urea concentration. Samples were then digested with trypsin (Pierce trypsin, Thermo) at an enzyme to protein ratio of 1:50 (w/w) at room temperature with gentle shaking for overnight.
# The digest was stopped by the addition of 1% TFA (v/v), centrifuged at 10,000 g for 10 min at room temperature.
# The supernatant were desalted on 200 mg SepPak tC18 cartridge (Waters). Desalted peptides were dried by vacuum centrifugation using Speedvac (Thermo).
# TMT labelling and Basic C18 reverse phase (bRP) chromatography fractionation Each sample (200 μg of peptides each) was re-suspended in 100 μL of 100 mM TEAB buffer. The TMT labelling reagents were equilibrated to room temperature and 41 μL anhydrous acetonitrile was added to each reagent channel and softly vortexed for 10 min. Peptides were transferred to the corresponding TMT channels and incubated for 1 h at room temperature. The reaction was quenched with 8 μL of 5% hydroxylamine. To ensure complete labelling, 1 µg of labelled samples from each channel were analyzed by LC-MS/MS prior to mix. After evaluation, the complete TMT labelled 9 samples were then combined, acidified and dried. Sep-Pak desalting was then performed and the elution was dried to completeness.
# Ultimate 3000 high-pressure liquid chromatography (HPLC) system (Dionex) were used for basic C18 reverse phase chromatography fractionation operating at 569 µL/min with two buffers: buffer A (10 mM ammonium formate, pH 10) and buffer B (80% ACN, 10 mM ammonium formate, pH 10). The desalted mixture of TMT-labelled peptides were resuspended in 200 µL of buffer A (10 mM ammonium formate, pH10) and separated on a C18 reverse phase column (4.6 × 250 mm, 3.5 μm, Waters) with a gradient from 3% B to 12.5 % B in 10 min, […]
# min, 100% for 5 min, ramping to 3% B in 2.5 min and then 3% for 10 min. A total of 90 fractions (1 min per fraction) were collected before further concatenation into 30 final fractions. Each fraction was then dried and desalted over a C18 StageTip prior to analysis by mass spectrometry. […]
smiles,measurement,setting,value
Cc1ccc(F)c(S(=O)(=O)Nc2ccc(-c3nc(OC[C@H]4CN(CCCCCCOCCOCCOCC(=O)N[C@H](C(=O)N5C[C@H](O)C[C@H]5C(=O)NCc5ccc(-c6scnc6C)cc5)C(C)(C)C)CCO4)c4cn[nH]c4n3)cc2)c1 [SGK3-PROTAC1],Abundances (Grouped),,60.6
same,Ratio: (SGK3-PROTAC1) / (cSGK3-PROTAC1),,0.526
same,Ratio: (compound) / (DMSO),,0.484
same,selectivity in global proteome (8766 proteins quantified),vs cisSGK3-PROTAC1 or DMSO,only SGK3 expression being significantly reduced
Cc1ccc(F)c(S(=O)(=O)Nc2ccc(-c3nc(OC[C@H]4CN(CCCCCCOCCOCCOCC(=O)N[C@H](C(=O)N5C[C@@H](O)C[C@H]5C(=O)NCc5ccc(-c6scnc6C)cc5)C(C)(C)C)CCO4)c4cn[nH]c4n3)cc2)c1 [cisSGK3-PROTAC1],Abundances (Grouped),,115.2
same,Ratio: (compound) / (DMSO),,0.949
